Reference: US20230172930A1, “USE OF COMPLEMENT FACTOR D INHIBITORS ALONE OR IN COMBINATION WITH ANTI-C5 ANTIBODIES FOR TREATMENT OF PAROXYSMAL NOCTURNAL HEMOGLOBINURIA” (Alexion Pharmaceuticals, Inc., priority 2020, published 2023)

System: PNH patients with an inadequate response to eculizumab
Assay: Phase 2 study: RBC transfusion needs (events, units, annualized rates)
Type: in vivo, human
Procedure: Transfusion frequency and amount were evaluated via annualized rates and units, respectively. The average intensive rate of transfusion frequency before treatment was calculated by summing the number of transfusion events in the 52 weeks prior to Screening plus days from Screening to Day 1 of dosing from 10 patients and dividing this sum by the patients' total exposure times. The average intensive rate in the 24 weeks post-treatment was calculated with the same method. The ratio of these two intensive rates (post vs. pre) was used to quantify the treatment effect. Standard statistical analysis for comparing the two intensity rates (post- vs pre-treatment) was conducted.

[1] = pre-danicopan: 52-week history plus screening to Day 1, ten patients on eculizumab

CC(=O)c1nn(CC(=O)N2C[C@H](F)C[C@H]2C(=O)Nc2cccc(Br)n2)c2ccc(-c3cnc(C)nc3)cc12 [Danicopan, danicopan]
reduction in transfusion frequency (post- vs. pre-danicopan): 95.8%
average annualized rate of transfusion events (post-danicopan (24 weeks)): 0.217
average annualized transfusion units (post-danicopan (24 weeks)): 0.43
average annualized rate of transfusion events (pre-danicopan): 5.234
average annualized transfusion units (pre-danicopan): 9.27
transfusions administered [1]: 57
units of packed red blood cells (PRBC) [1]: 101 units
units transfused (since commencing danicopan through week 24, ten patients): 2 units
